Results from ChEMBL document CHEMBL4739709, “Novel cyclin-dependent kinase 8 and/or 19 inhibitor” (2020).
Each block holds one molecule with its values, some of them ahead of it. The source made the active and inactive calls. The calls are words filed in the database; no cut-off is given here.

Experiments:
[1] = target: CDK8/Cyclin C (Homo sapiens) (UniProt P49336+P24863); assay: Inhibition of human CDK8/cyclin C at 1 uM incubated for 30 mins by ELISA; format: protein-complex assay
MV4-11 = assay: Inhibition of cell proliferation of human MV4-11 cells at 1 uM incubated for 3 days by CellTiter 96 aqueous one solution cell proliferation assay; format: functional; settings: MV4-11, 72 h, time 3 day
[2] = target: Serine/threonine-protein kinase pim-1 (Homo sapiens) (UniProt P11309); assay: Inhibition of human PIM1 at 1 uM using substrate peptide by off-chip mobility shift assay
[3] = target: Lymphokine-activated killer T-cell-originated protein kinase (Homo sapiens) (UniProt Q96KB5); assay: Inhibition of human PBK at 1 uM using substrate peptide by off-chip mobility shift assay
[4] = target: RAC-alpha serine/threonine-protein kinase (Homo sapiens) (UniProt P31749); assay: Inhibition of human AKT1 at 1 uM using substrate peptide by off-chip mobility shift assay
[5] = target: Mitogen-activated protein kinase 14 (Homo sapiens) (UniProt Q16539); assay: Inhibition of human p38alpha at 1 uM using substrate peptide by off-chip mobility shift assay
[6] = target: Serine/threonine-protein kinase PAK 2 (Homo sapiens) (UniProt Q13177); assay: Inhibition of human PAK2 at 1 uM using substrate peptide by off-chip mobility shift assay
[7] = target: Mitogen-activated protein kinase kinase kinase kinase 2 (Homo sapiens) (UniProt Q12851); assay: Inhibition of human MAP4K2 at 1 uM using substrate peptide by off-chip mobility shift assay
[8] = target: Cyclin-dependent kinase 19 (Homo sapiens) (UniProt Q9BWU1); assay: Inhibition of CDK19 (unknown origin) at 1 uM incubated for 30 mins by ELISA
[9] = target: Cyclin-dependent kinase 1/cyclin B1 (Homo sapiens) (UniProt P06493+P14635); assay: Inhibition of human CDC2/CycB1 at 1 uM using substrate peptide by off-chip mobility shift assay; format: protein-complex assay
[10] = target: Mitogen-activated protein kinase 1 (Homo sapiens) (UniProt P28482); assay: Inhibition of human ERK2 at 1 uM using substrate peptide by off-chip mobility shift assay
[11] = target: Calcium/calmodulin-dependent protein kinase type IV (Homo sapiens) (UniProt Q16566); assay: Inhibition of human CaMK4 at 1 uM using substrate peptide by off-chip mobility shift assay
[12] = target: CDK4/Cyclin D3 (Homo sapiens) (UniProt P11802+P30281); assay: Inhibition of human CDK4/CycD3 at 1 uM using substrate peptide by off-chip mobility shift assay; format: protein-complex assay
[13] = target: Interleukin-1 receptor-associated kinase 4 (Homo sapiens) (UniProt Q9NWZ3); assay: Inhibition of human JNK2 at 1 uM using substrate peptide by off-chip mobility shift assay
[14] = target: CDK7/Cyclin H/MNAT1 (Homo sapiens) (UniProt P51946+P50613+P51948); assay: Inhibition of human CDK7/CycH/MAT1 at 1 uM using substrate peptide by off-chip mobility shift assay; format: protein-complex assay
[15] = target: Aurora kinase A (Homo sapiens) (UniProt O14965); assay: Inhibition of human Aurora A at 1 uM using substrate peptide by off-chip mobility shift assay
[16] = target: Rho-associated protein kinase 1 (Homo sapiens) (UniProt Q13464); assay: Inhibition of human ROCK1 at 1 uM using substrate peptide by off-chip mobility shift assay
[17] = target: Serine/threonine-protein kinase Nek2 (Homo sapiens) (UniProt P51955); assay: Inhibition of human NEK2 at 1 uM using substrate peptide by off-chip mobility shift assay
[18] = target: Cyclin-dependent kinase 2/cyclin E1 (Homo sapiens) (UniProt P24864+P24941); assay: Inhibition of human CDK2/CycE1 at 1 uM using substrate peptide by off-chip mobility shift assay; format: protein-complex assay
[19] = target: Serine/threonine-protein kinase Chk1 (Homo sapiens) (UniProt O14757); assay: Inhibition of human CHK1 at 1 uM using substrate peptide by off-chip mobility shift assay
[20] = target: Mitogen-activated protein kinase kinase kinase kinase 4 (Homo sapiens) (UniProt O95819); assay: Inhibition of human HGK at 1 uM using substrate peptide by off-chip mobility shift assay
[21] = target: AMP-activated protein kinase (AMPK) alpha-1/beta-1/gamma-1 (Homo sapiens) (UniProt P54619+Q9Y478+Q13131); assay: Inhibition of human AMPKalpha1/beta1/gamma1 at 1 uM using substrate peptide by off-chip mobility shift assay
Homo sapiens [22] = organism: Homo sapiens; assay: Inhibition of human CK1delta at 1 uM using substrate peptide by off-chip mobility shift assay
[23] = target: Serine/threonine-protein kinase D2 (Homo sapiens) (UniProt Q9BZL6); assay: Inhibition of human PKD2 at 1 uM using substrate peptide by off-chip mobility shift assay
[24] = target: Testis-specific serine/threonine-protein kinase 1 (Homo sapiens) (UniProt Q9BXA7); assay: Inhibition of human TSSK1 at 1 uM using substrate peptide by off-chip mobility shift assay
[25] = target: CDK9/cyclin T1 (Homo sapiens) (UniProt O60563+P50750); assay: Inhibition of human CDK9/CycT1 at 1 uM using substrate peptide by off-chip mobility shift assay; format: protein-complex assay
[26] = target: Dual specificity tyrosine-phosphorylation-regulated kinase 1B (Homo sapiens) (UniProt Q9Y463); assay: Inhibition of human DYRK1B at 1 uM using substrate peptide by off-chip mobility shift assay
[27] = target: Glycogen synthase kinase-3 beta (Homo sapiens) (UniProt P49841); assay: Inhibition of human GSK3beta at 1 uM using substrate peptide by off-chip mobility shift assay
[28] = target: cAMP-dependent protein kinase catalytic subunit alpha (Homo sapiens) (UniProt P17612); assay: Inhibition of human PKACalpha at 1 uM using substrate peptide by off-chip mobility shift assay
[29] = target: CDK6/cyclin D3 (Homo sapiens) (UniProt P30281+Q00534); assay: Inhibition of human CDK6/cyclinD3 at 1 uM using substrate peptide by off-chip mobility shift assay; format: protein-complex assay
[30] = target: Death-associated protein kinase 1 (Homo sapiens) (UniProt P53355); assay: Inhibition of human DAPK1 at 1 uM using substrate peptide by off-chip mobility shift assay
[31] = target: CDK2/Cyclin C (Homo sapiens) (UniProt P24941+P24863); assay: Inhibition of human CDK2/CycC2 at 1 uM using substrate peptide by off-chip mobility shift assay
[32] = target: Interleukin-1 receptor-associated kinase 4 (Homo sapiens) (UniProt Q9NWZ3); assay: Inhibition of human IRAK4 at 1 uM using substrate peptide by off-chip mobility shift assay
[33] = target: Inhibitor of nuclear factor kappa-B kinase subunit beta (Homo sapiens) (UniProt O14920); assay: Inhibition of human IKKbeta at 1 uM using substrate peptide by off-chip mobility shift assay
[34] = target: 3-phosphoinositide-dependent protein kinase 1 (Homo sapiens) (UniProt O15530); assay: Inhibition of human PDK1 at 1 uM using substrate peptide by off-chip mobility shift assay
Homo sapiens [35] = organism: Homo sapiens; assay: Inhibition of human p70S6K at 1 uM using substrate peptide by off-chip mobility shift assay
[36] = target: Serine/threonine-protein kinase 4 (Homo sapiens) (UniProt Q13043); assay: Inhibition of human MST1 at 1 uM using substrate peptide by off-chip mobility shift assay
[37] = target: Cyclin-dependent kinase 5/CDK5 activator 1 (Homo sapiens) (UniProt Q00535+Q15078); assay: Inhibition of human CDK5/p25 at 1 uM using substrate peptide by off-chip mobility shift assay; format: protein-complex assay
[38] = target: CDK3/Cyclin E (Homo sapiens) (UniProt P24864+Q00526); assay: Inhibition of human CDK3/CycE1 at 1 uM using substrate peptide by off-chip mobility shift assay; format: protein-complex assay
[39] = target: Serine/threonine-protein kinase Sgk1 (Homo sapiens) (UniProt O00141); assay: Inhibition of human SGK at 1 uM using substrate peptide by off-chip mobility shift assay

Cyclin-dependent kinase 19 (Homo sapiens), sequence (Q9BWU1 whole entry): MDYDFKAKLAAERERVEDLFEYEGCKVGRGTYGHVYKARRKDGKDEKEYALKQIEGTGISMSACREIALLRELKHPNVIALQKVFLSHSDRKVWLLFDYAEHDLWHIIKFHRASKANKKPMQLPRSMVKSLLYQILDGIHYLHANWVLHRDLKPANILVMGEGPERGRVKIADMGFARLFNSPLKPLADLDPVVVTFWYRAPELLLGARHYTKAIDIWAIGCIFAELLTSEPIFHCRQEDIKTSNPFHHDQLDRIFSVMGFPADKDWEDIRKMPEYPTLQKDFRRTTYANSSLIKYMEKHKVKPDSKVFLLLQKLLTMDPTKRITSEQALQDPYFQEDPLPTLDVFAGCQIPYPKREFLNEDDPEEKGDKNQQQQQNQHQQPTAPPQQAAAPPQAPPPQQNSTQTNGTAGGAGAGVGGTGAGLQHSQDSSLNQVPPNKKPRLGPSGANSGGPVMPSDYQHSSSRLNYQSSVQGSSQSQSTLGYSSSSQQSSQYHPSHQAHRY
Interleukin-1 receptor-associated kinase 4 (Homo sapiens), sequence (Q9NWZ3 whole entry): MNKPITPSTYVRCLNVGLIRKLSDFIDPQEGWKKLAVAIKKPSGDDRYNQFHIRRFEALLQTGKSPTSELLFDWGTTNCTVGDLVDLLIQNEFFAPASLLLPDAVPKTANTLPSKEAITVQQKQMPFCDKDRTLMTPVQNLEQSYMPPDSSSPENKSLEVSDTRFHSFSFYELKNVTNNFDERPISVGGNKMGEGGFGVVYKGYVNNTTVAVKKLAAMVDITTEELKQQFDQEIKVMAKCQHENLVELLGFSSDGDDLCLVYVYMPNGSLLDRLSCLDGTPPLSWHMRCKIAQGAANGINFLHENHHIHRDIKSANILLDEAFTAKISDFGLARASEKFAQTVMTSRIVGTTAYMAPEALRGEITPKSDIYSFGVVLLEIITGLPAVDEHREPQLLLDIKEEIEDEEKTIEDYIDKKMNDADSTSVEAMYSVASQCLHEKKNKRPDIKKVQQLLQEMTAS
Dual specificity tyrosine-phosphorylation-regulated kinase 1B (Homo sapiens), sequence (Q9Y463 whole entry, looked up): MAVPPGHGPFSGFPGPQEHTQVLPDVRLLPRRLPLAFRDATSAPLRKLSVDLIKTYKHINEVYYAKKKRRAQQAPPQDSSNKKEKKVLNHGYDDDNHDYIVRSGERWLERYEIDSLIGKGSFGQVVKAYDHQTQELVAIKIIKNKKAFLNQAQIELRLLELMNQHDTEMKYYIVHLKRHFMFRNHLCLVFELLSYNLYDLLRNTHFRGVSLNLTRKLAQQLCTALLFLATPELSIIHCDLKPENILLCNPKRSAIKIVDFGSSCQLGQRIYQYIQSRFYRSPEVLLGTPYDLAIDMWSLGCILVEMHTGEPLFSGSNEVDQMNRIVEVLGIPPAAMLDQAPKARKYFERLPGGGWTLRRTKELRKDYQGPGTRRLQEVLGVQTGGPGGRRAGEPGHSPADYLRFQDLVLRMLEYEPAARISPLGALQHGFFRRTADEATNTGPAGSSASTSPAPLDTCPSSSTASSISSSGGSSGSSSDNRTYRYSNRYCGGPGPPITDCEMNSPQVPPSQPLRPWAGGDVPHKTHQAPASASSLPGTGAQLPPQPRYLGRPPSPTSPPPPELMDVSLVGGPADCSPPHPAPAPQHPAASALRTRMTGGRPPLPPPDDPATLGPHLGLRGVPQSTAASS
Rho-associated protein kinase 1 (Homo sapiens), sequence (Q13464 2-1354 limits assumed): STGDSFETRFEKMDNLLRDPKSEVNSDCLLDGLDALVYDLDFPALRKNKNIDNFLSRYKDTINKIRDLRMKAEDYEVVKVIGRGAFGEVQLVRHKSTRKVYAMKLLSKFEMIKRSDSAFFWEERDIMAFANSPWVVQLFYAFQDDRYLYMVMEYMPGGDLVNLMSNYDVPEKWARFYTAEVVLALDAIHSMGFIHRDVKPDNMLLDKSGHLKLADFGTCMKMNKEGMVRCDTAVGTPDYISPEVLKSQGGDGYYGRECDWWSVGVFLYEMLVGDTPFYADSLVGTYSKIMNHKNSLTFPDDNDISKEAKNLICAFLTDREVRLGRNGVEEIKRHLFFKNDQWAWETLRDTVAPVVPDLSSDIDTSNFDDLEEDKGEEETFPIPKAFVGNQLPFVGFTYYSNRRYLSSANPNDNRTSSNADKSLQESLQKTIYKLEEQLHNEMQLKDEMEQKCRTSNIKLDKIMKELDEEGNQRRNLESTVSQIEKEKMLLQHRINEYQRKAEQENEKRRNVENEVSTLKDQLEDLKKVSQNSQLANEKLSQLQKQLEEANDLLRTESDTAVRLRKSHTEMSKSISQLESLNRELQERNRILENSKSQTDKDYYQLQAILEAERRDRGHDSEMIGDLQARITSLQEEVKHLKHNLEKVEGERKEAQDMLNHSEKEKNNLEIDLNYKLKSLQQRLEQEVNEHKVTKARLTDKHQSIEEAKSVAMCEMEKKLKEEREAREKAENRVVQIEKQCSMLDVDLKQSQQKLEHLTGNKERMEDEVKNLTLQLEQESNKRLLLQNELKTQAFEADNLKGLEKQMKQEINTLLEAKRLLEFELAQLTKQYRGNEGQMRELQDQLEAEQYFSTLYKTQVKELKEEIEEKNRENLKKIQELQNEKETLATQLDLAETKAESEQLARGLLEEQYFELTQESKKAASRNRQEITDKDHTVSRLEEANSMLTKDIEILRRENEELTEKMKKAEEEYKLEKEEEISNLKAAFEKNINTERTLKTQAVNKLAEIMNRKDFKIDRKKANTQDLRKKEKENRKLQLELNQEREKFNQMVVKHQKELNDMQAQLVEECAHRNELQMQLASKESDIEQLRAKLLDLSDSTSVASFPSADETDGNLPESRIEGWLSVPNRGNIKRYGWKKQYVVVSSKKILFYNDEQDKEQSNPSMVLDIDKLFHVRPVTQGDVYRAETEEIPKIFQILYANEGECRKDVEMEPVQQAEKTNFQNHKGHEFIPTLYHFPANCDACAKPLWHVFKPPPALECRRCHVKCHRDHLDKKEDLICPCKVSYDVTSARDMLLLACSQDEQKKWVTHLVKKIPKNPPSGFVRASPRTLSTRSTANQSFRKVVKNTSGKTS
Lymphokine-activated killer T-cell-originated protein kinase (Homo sapiens), sequence (Q96KB5 whole entry): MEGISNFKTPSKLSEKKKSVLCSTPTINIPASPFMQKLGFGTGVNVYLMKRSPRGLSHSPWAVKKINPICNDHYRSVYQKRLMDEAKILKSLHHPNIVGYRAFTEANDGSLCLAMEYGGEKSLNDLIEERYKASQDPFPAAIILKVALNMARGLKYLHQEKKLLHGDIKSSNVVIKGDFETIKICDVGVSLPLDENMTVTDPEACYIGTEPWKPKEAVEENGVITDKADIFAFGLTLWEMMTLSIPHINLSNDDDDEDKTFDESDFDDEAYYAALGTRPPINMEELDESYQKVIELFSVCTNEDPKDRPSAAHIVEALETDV
Cyclin-dependent kinase 1/cyclin B1 (Homo sapiens), sequence (P06493 whole entry, looked up): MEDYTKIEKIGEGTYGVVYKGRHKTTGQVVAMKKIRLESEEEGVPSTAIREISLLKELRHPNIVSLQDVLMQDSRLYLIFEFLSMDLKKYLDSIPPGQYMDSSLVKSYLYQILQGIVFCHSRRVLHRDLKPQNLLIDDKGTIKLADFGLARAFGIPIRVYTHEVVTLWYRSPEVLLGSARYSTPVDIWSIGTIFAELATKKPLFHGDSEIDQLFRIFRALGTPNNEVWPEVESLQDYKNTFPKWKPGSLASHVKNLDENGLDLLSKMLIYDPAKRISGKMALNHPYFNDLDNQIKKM
Cyclin-dependent kinase 1/cyclin B1 (Homo sapiens), sequence (P14635 whole entry, looked up): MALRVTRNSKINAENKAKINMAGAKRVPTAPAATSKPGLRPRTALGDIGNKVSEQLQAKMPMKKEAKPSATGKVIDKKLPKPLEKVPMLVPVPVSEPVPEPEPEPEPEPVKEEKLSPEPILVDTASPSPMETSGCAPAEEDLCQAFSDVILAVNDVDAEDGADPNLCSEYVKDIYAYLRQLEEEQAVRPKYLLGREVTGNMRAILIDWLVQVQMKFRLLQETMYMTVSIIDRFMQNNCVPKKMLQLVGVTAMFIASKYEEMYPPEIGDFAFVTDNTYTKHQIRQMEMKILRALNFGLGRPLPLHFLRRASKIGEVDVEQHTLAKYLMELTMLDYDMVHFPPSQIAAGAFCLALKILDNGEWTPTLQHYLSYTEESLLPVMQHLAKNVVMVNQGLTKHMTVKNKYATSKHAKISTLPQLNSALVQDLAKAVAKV
3-phosphoinositide-dependent protein kinase 1 (Homo sapiens), sequence (O15530 whole entry): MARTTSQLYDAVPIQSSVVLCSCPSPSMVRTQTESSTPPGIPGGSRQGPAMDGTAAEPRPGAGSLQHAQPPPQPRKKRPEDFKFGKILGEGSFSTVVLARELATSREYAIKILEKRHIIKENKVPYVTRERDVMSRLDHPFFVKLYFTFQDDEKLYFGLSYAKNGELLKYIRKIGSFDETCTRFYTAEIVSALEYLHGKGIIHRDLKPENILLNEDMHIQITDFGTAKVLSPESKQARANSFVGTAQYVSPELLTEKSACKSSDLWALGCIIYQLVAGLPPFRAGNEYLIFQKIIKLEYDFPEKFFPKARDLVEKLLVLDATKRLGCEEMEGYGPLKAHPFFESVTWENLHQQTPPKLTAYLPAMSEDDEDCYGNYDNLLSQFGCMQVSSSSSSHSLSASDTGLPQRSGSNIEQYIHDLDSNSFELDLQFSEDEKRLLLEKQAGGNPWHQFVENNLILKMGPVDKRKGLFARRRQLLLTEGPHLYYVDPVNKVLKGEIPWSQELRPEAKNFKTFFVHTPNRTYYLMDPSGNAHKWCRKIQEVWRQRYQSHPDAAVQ
Serine/threonine-protein kinase Nek2 (Homo sapiens), sequence (P51955 whole entry): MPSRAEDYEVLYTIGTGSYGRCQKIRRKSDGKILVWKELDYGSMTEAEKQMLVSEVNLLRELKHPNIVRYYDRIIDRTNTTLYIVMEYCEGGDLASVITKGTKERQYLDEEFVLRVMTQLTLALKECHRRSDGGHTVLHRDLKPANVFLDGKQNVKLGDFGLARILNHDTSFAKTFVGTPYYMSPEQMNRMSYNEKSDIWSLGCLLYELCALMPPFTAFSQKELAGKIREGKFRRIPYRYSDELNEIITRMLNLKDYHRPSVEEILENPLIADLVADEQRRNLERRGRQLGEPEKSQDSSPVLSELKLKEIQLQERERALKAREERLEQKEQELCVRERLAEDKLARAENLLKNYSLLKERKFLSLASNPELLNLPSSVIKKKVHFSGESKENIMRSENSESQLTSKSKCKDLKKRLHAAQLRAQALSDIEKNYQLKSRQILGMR

inhibition [1]: > 90%
Structure (SMILES): CC(=O)c1ccc(C(N)=O)cc1Oc1ccc(OCCOC2CCOC2)cc1 (configuration not stated)
inhibition at 1 µM (MV4-11): ≥ 50%

inhibition [1]: > 90%
Structure (SMILES): CC(C)OCCOCCOc1ccc(Oc2cc(C(N)=O)ccc2C(F)(F)F)cc1

inhibition [1]: > 90%
Structure (SMILES): CC(=O)c1ccc(C(N)=O)cc1Oc1ccc(OCCOCCOC(C)C)cc1
inhibition at 1 µM (MV4-11): ≥ 50%

inhibition [2]: inactive
inhibition [4]: inactive
inhibition [5]: inactive
inhibition [6]: inactive
inhibition [7]: inactive
inhibition [8]: > 90%
inhibition [9]: inactive
inhibition [10]: inactive
inhibition [11]: inactive
inhibition [12]: inactive
inhibition [13]: inactive
inhibition [1]: > 90%
inhibition [14]: inactive
inhibition [15]: inactive
inhibition [16]: inactive
inhibition [17]: inactive
inhibition [18]: inactive
inhibition [19]: inactive
inhibition [20]: inactive
inhibition [21]: inactive
inhibition (Homo sapiens [22]): inactive
inhibition [23]: inactive
inhibition [24]: inactive
inhibition [25]: inactive
inhibition [26]: inactive
inhibition [27]: inactive
inhibition [28]: inactive
inhibition [29]: inactive
inhibition [31]: inactive
inhibition [32]: inactive
inhibition [33]: inactive
inhibition [34]: inactive
inhibition (Homo sapiens [35]): inactive
inhibition [36]: inactive
inhibition [37]: inactive
inhibition [38]: inactive
inhibition [39]: inactive
Structure (SMILES): CC(=O)c1ccc(C(N)=O)cc1Oc1ccc(OCCOC2CCOCC2)cc1
inhibition [3]: inactive
inhibition [30]: inactive
inhibition at 1 µM (MV4-11): ≥ 50%

inhibition [1]: > 90%
Structure (SMILES): CC(=O)c1ccc(C(N)=O)cc1Oc1ccc(N2CC(OCCO)C2)cc1
inhibition at 1 µM (MV4-11): ≥ 50%

inhibition [1]: > 90%
Structure (SMILES): NC(=O)c1ccc([N+](=O)[O-])c(Nc2ccc(OCCOC3CCOCC3)cc2)c1
inhibition at 1 µM (MV4-11): ≥ 50%

inhibition [1]: > 90%
Structure (SMILES): CC(=O)c1ccc(C(N)=O)c(Oc2ccc(N3CC(OCCO)C3)cc2)c1

inhibition [1]: > 90%
Structure (SMILES): NC(=O)c1ccc(C(F)(F)F)c(Oc2ccc(OCCOC3CCOCC3)cc2)c1
inhibition at 1 µM (MV4-11): ≥ 50%

inhibition [1]: > 90%
Structure (SMILES): C=C(F)c1ccc(C(N)=O)cc1Oc1ccc(OCCOC2CCOCC2)cc1
inhibition at 1 µM (MV4-11): ≥ 50%

inhibition [1]: > 90%
Structure (SMILES): CNC(=O)c1ccc([N+](=O)[O-])c(Nc2ccc(N3CC(OCCO)C3)cc2)c1
inhibition at 1 µM (MV4-11): ≥ 50%

inhibition [8]: > 90%
inhibition [1]: > 90%
Structure (SMILES): C[C@@H](O)c1ccc(C(N)=O)cc1Oc1ccc(OCCOC2CCOCC2)cc1

inhibition [1]: > 90%
Structure (SMILES): COc1cc(Nc2ccc(N3CCN(CC(C)(C)C(=O)O)CC3)cc2)c([N+](=O)[O-])cc1F

inhibition [1]: > 90%
Structure (SMILES): NC(=O)c1ccc([N+](=O)[O-])c(Nc2ccc(N3CC(OCCO)C3)cc2)c1
inhibition at 1 µM (MV4-11): ≥ 50%

inhibition [1]: > 90%
Structure (SMILES): CC(=O)c1ccc(C(N)=O)cc1Nc1ccc(OCCOCCCC(=O)O)cc1
